# Like-named read-outs stand apart in the source and are kept apart here. Ends that are not written are not given here.
# B1: PR40: poly-PR peptide of 40 repeats (peptide)
# peptide: PRPRPRPRPRPRPRPRPRPRPRPRPRPRPRPRPRPRPRPRPRPRPRPRPRPRPRPRPRPRPRPRPRPRPRPRPRPRPRPR
# How the values were obtained:
# [1] = target: translation of nanoluciferase mRNA in rabbit reticulocyte lysates; assay: Nanoluciferase mRNA translation in rabbit reticulocyte lysate, inhibitor preincubated 5 min before mRNA; assay type: biochemical; conditions: for IC50: same extracts as the DPR assay, read-out: IC50 in RRL extracts, range stated in the response to reviewers
# Source text: Rabbit reticulocyte lysates (RRL, Promega) were used to investigate the inhibition of translation by DPR proteins. We independently monitored translation of two mRNAs encoding non-homologous proteins of different lengths: nanoluciferase[71] and firefly luciferase. To measure the IC50s of the translational inhibitors cycloheximide (Akros Organics), harringtonine (AbCam), GDPCP (Jena Biosciences), PR20 and GR20, we monitored the translation of nanoluciferase mRNA in nuclease-treated RRL (Promega). […] Next, 10 ng/μl (final concentration) 6xhis-Nanoluciferase mRNA flanked with the 5'- and 3'-UTR from rabbit beta-globin[48] was added and the luminescence reactions were continuously measured by an Infinite m1000 pro microplate reader (Tecan) for 15 min at 30 °C. The 1st derivative of the luminescence reactions was determined in Prism 8 (GraphPad Software, LLC) and the maximum was identified and the mean of three maximums from independent experiments for each inhibitor was taken as the rate. The rates were plotted versus inhibitors concentration, and the plots were fitted in Prism 8 (GraphPad Software, LLC) to a 3-parameter inhibition model (Y = baseline + (max-baseline)/(1 + X/IC50)) to obtain the IC50 values where the baseline was constrained to 0. This procedure was modified to separate translation initiation from translation elongation by changing the time of addition of the inhibitors to ~300 s after mRNA addition when RLUs had reached a value of ~50,000. Here, the maximum of the first derivative was taken in the 2nd or later measurement taken after inhibitor addition.
# The following additional controls indicate that DPR-induced changes in fluorescence were caused by translation inhibition.
# [2] = system: ribosomes on endogenous beta-globin mRNA in RRL; assay: Toeprinting of 80S and 4-5-mer polysome fractions on beta-globin mRNA; assay type: biochemical, rabbit; conditions: for Ratio (START to CDS) / Normalized ratio START/ORF: 80S fraction, primer A, Fig. 2f independent repeat; for Normalized ratio START/ORF: no inhibitor = 1; for normalized ratio START to CDS, MEAN: 4-5-mer, primer B, mean of ten 20 bp windows
# Method: Toeprinting analyses were carried out similarly to those in refs. [51],[74], using 80S and polysome (4–5-some) fractions collected from polysome profiles as described in “Polysome Profiles” except that reactions were doubled in size (200 μL), performed at 37 °C, and were stopped with ice-cold 1xAMV Buffer (50 mM Tris-HCl pH 8.3, 50 mM KCl, 5 mM MgCl2) with 200 μg/ml cycloheximide before being separated on at 10–35% sucrose gradient in 1xAMV buffer with 0.5 mM spermidine and 1 mM DTT. 600 μl of each fraction (80S or 4–5-mer) was supplemented with 10 mM DTT. Then 10 U of AMV reverse transcriptase (Promega), 120 nmol dNTPs, and 120 pmol of a 5'[6-carboxyfluorescein (FAM)]-labeled primer (IDT-DNA) were added. Two primers specific to the endogenous beta-globin mRNA in RRL were used in separate reactions: 5′-(FAM)-GGACTCGAAGAACCTCTG (as in ref. [74]) annealed 136 nucleotides downstream of the AUG or 5′-(FAM)-[…] annealed to the end of the 3'-UTR. Primers were extended at 37 °C for 30 min, and then the reaction were extracted in 1:1 phenol:chloroform, supplemented with 1/10 volume of 3 M sodium acetate pH 5.2, and precipitated with 2.5 volumes of 100% ethanol. Pellets were resuspended in 10 μl of deionized formamide (Applied Biosystems) with 1/20 volume of a 35-500 nucleotide orange-dye labeled DNA size standard (MCLab) and loaded onto a 96-well plate. The samples were sent for fragment analysis by capillary electrophoresis to the UMass Chan Medical School Molecular Biology Core Laboratory using an ABI3730XL DNA Fragment Analyzer with capillaries loaded with POP-7 polymer and with an injection voltage of 12.5 kV. Data collection was performed with GeneMapper software (ABI). Data were exported as.fsa files and were analyzed (aligning to ladder and background correction) in GeneMarker 3.0.1 software (SoftGenetics) running in demo mode. Screen captures of traces were taken and traces were integrated using the “Quantification” feature and manually adjusting sliders to include the desired nucleotide range.
# E. coli 70S ribosomes = assay: Kinetic peptidyl transfer (puromycin) assay on E. coli 70S ribosomes; assay type: biochemical; conditions: for Ki: n = 2
# Method: The effects of GRn or PRn on peptide bond formation in E. coli ribosome were tested in an in vitro assay that reacts the 70S ribosome loaded with [^35S]-fMet-tRNA^fMet in the P-site with puromycin, an A-site tRNA mimic, and measures the release of the resulting dipeptide containing formyl-methionine covalently bonded to puromycin, as described. E. coli tRNA^fMet (Chemical Block) was aminoacylated with [^35S]-N-formyl-L-methionine (Perkin Elmer) as described. 70S ribosomes were prepared from E. coli (MRE600) as described. 70S ribosomes were stored in the ribosome-storage buffer (20 mM Tris-HCl, pH 7.0; 100 mM NH4Cl; 20 mM MgCl2) at –80 °C. A model mRNA fragment, containing the Shine-Dalgarno sequence and a spacer to position the AUG codon in the P-site and the UUC codon in the A site (GGCAAGGAGGUAAAAAUGUUC AAAAAA), was synthesized by IDT. 70S•mRNA•fMet-tRNA^fMet complexes with GRn (where n = 4, 10 or 20) or PRn (where n = 4, 10, 20 or 40) were formed as follows. 330 nM 70S ribosomes were incubated with 11 µM mRNA in buffer containing 20 mM Tris-acetate (pH 7.0), 100 mM NH4OAc, 12 mM Mg(OAc)2, for 2 min at 37 °C. 730 nM [^35S]-fMet-tRNA^fMet was added and incubated for 5 min at 37 °C. The solution was diluted 9.6-fold with the same buffer, followed by addition of a GRn or PRn repeat peptide (22x relative to its final concentration). The complex was incubated for 5 min at 37 °C prior to addition of puromycin dissolved in the same buffer (see below).
# (§1) The kinetics of puromycin reaction on the 70S or 80S ribosomes were recorded and analyzed essentially as described. An aliquot (4.5 μl) of the complex prior to addition of puromycin was quenched in 30 μl of saturated MgSO4 in 0.1 M NaOAc to represent the zero-time point. Five microliters of 500 µM puromycin (in the same buffer as that used for the ribosomal complex) was added to 45 μl of the complex to initiate the reaction, yielding estimated final concentrations: 30 nM for the ribosome, 1 µM mRNA, 66 nM [^35S]-fMet-tRNA^fMet, 50 µM puromycin, and varying concentrations of PRn and GRn peptides, from 30 nM to 2 μM. After 6, 15, 30, 90 s, and 5, 15, 30, 60, and (for slower reactions) 180 min, 5-μl aliquots were quenched in 30 μl of saturated MgSO4 in 0.1 M NaOAc. All quenched samples were extracted with 700 μl ethyl-acetate. 600 μl of the extract were mixed with 3.5 ml of Econo-Safe scintillation cocktail (RPI), and the amount of released [^35S]-labeled dipeptide was measured for each time point using a scintillation counter (Beckman Coulter, Inc.).
# (§2) All time progress curves were recorded in duplicates, using independently prepared 70S or 80S complexes. Reaction rates were calculated using single-exponential or double-exponential (80S complexes) regressions for different concentrations of PRn and GRn using GraphPad Prism 8. Hyperbola fitting in Gnuplot was used to derive apparent Ki-values.
# rabbit 80S ribosomes = assay: Kinetic peptidyl transfer (puromycin) assay on rabbit 80S ribosomes; assay type: biochemical
# Source text: To test the effects of PR20 on the mammalian peptidyl transferase, 80S ribosomes were purified from rabbit reticulocyte lysate (Green Hectares) and dissociated into 40S and 60S subunits as described in the section entitled “Cryo-EM complex of mammalian 80S ribosome with PR20”. A model leaderless mRNA fragment placing the AUG codon in the P-site and the UUC codon in the A site (CCAC AUG UUC CCCCCCCCCCCCCCCCCC), was synthesized by IDT. The 80S•mRNA•fMet-tRNA^fMet complex with PRn (where n = 10, 20, or 40) or GR20 was assembled as follows. one micrometer 60S subunit was mixed with the DPR (starting with the initial DPR concentration of 33x relative to its final concentration in the reaction) in Assembly Buffer containing 20 mM Tris-acetate (pH 7.0), 100 mM KOAc, 10 mM Mg(OAc)2, and the mixture was incubated for 5 min at 30 °C. […] 1095 nM [^35S]-fMet-tRNA^fMet and the 60S solution were added (0.5 volumes of the 40S solution), resulting in the following concentrations: 330 nM 60S, 400 nM 40S, 730 nM tRNA, 11 µM mRNA and 11x of final concentration of a DPR in the buffer (20 mM Tris-acetate (pH 7.0), 100 mM KOAc, 10 mM Mg(OAc)2). The solution was incubated for 5 min at 30 °C. The solution was diluted ten times with the same buffer, then puromycin (prepared in the same buffer) was added and time progress curves were recorded.
# as §1, §2
# [3] = target: Oryctolagus cuniculus (rabbit) 80S ribosome (rabbit (Oryctolagus cuniculus)) (UniProt G1SVW5)
# [4] = target: Escherichia coli 70S ribosome (E. coli)
# [5] = 30 nM 70S, 50 µM puromycin, 37 °C, read-out: apparent inhibition constant (Ki) of peptidyl transfer
molecule,measurement,setting,value
C[C@@H]1C[C@@H]([C@H](O)CC2CC(=O)NC(=O)C2)C(=O)[C@@H](C)C1 [Cycloheximide],IC50,[1],10 to 500 nM
same,"site of ribosome accumulation, toe-printing of polysome fractions",[2],accumulate within the open reading frame
same,Ratio (START to CDS),[2],3.435
same,Normalized ratio START/ORF,[2],1.274
same,"normalized ratio START to CDS, MEAN",[2]; Fig. 2g,0.5607
same,"normalized ratio START to CDS, MEAN",[2]; Fig. 2h independent repeat,0.326
COC(=O)C[C@](O)(CCC(C)(C)O)C(=O)O[C@@H]1C(OC)=C[C@]23CCCN2CCc2cc4c(cc2[C@H]13)OCO4 [Harringtonine],IC50,[1],10 to 500 nM
same,"site of ribosome accumulation, toe-printing of polysome fractions",[2],accumulate at the start codon
same,Ratio (START to CDS),[2],6.47
same,Normalized ratio START/ORF,[2],2.399
same,"normalized ratio START to CDS, MEAN",[2]; Fig. 2g,9.437
same,"normalized ratio START to CDS, MEAN",[2]; Fig. 2h independent repeat,4.139
"N=C(N)NCCC[C@H](N)C(=O)O [L-arginine, reference compound]",effect on nanoluciferase translation in RRL,[1]; 100 μM,not inhibited
same,effect on peptidyl transfer on 70S,E. coli 70S ribosomes; 50 µM (Supplementary Fig. 2b),does not affect the peptidyl transfer reaction
same,effect on peptidyl transfer on rabbit 80S,rabbit 80S ribosomes; 50 µM,does not
"GR20 (poly-glycine-arginine, 20 repeats) (peptide)",IC50 of translation of nanoluciferase mRNA in 33% rabbit reticulocyte lysate,[3],425 nM
same,IC50 of translation of nanoluciferase mRNA in 50% rabbit reticulocyte lysate,[3],640 nM
same,apparent inhibition constant (Ki) of peptidyl transfer from [35S]-fMet-tRNAfMet to puromycin on E. coli 70S ribosomes,[4],164 nM
GRGRGRGR [GR4],Ki,E. coli 70S ribosomes; [5],> 2000 nM
same,effect on peptidyl transfer on 70S,E. coli 70S ribosomes; 2 µM,fail to inhibit peptidyl transfer
PRPRPRPR [PR4],Ki,E. coli 70S ribosomes; [5],> 2000 nM
same,effect on peptidyl transfer on 70S,E. coli 70S ribosomes; 2 µM,fail to inhibit peptidyl transfer
PRPRPRPRPRPRPRPRPRPR [PR10],Ki,"E. coli 70S ribosomes; source data of Fig. 3b, unit printed in the legend b16 only, read-out: Ki, app of fMet-Pmn release from 70S",1050 nM
same,effect on peptidyl transfer on rabbit 80S,"rabbit 80S ribosomes; 2 µM, n=2",no inhibition
B1,Ki,E. coli 70S ribosomes; [5],≤ 30 nM
same,Ki,rabbit 80S ribosomes; rabbit 80S,≤ 30 nM
"GRGRGRGRGRGRGRGRGRGR [GR10 (poly-glycine-arginine, 10 repeats)]",apparent inhibition constant (Ki) of peptidyl transfer to puromycin on E. coli 70S ribosomes,[4],600 nM
"PRPRPRPRPRPRPRPRPRPR [PR10 (poly-proline-arginine, 10 repeats)]",apparent inhibition constant (Ki) of peptidyl transfer to puromycin on E. coli 70S ribosomes,[4],1000 nM

# From publication PMC9120013, “Ribosome inhibition by C9ORF72-ALS/FTD-associated poly-PR and poly-GR proteins revealed by cryo-EM” (Nature Communications, 2022)
